{"source": "patent US20230277669A1", "about": "“USES OF UROLITHINS” (Amazentis SA, priority 2022, published 2023)", "key": {"APTK-s.c. tumors": {"tested_on": "APTK-s.c. tumors", "assay": "Oral UA in mice with established s.c. APTK tumors", "format": "in vivo, C57BL/6 mice", "description": "Oral UA confers anti-tumor effects in murine colorectal cancer in a T-cell dependent manner. (FIG. 1A) Schematic representation of AOM model and different UA containing diets. (FIG. 1B) Representative images of swiss-roll sections from AOM-induced colon tumors. Scale bars are 2 mm (upper row) and 300 µm (lower row), respectively. (FIG. 1C) Tumor incidence of AOM-induced tumors receiving different UA-containing diets; n=4/5/5. Data are mean ±SD, depicting one of two independent experiments. *p < 0.05 by two-sided t-test. (FIG. 1D) Average lesion size of AOM-induced tumors receiving different UA-containing diets; n=4/5/5. Data are mean ±SD, depicting one of two independent experiments. *p < 0.05 by two-sided t-test. (FIG. 1E) Relative number of CD45^+CD3^+ T cells in colons of AOM-treated mice at week 24 (n>7, pooled from two independent experiments). Data are mean ± SD, **p < 0.01 by two-sided t-test. (FIG. 1F) Organoid treatment scheme. APTK-organoids were incubated in the presence of UA or DMSO for the indicated time points, prior to flow cytometric analysis. (FIG. 1G) Quantification of lysosome formation as assessed by lysotracker MFI via flow cytometry after 24 h incubation at the presence of various UA concentrations (n=5/4/4). Depicts one out of two indepdent experiments. Data are mean ± SD, *p < 0.05; **p < 0.01 as established via two-sided t-test. (FIG. 1H) Mitotracker signal of APTK organoids incubated for 24 h at the presence of UA in vitro (n=4/4/4) and antigen presentation via MHC-I molecules (I) after 48 h of treatment (n=4/4/4). Results from one out of two independent experiments are shown. Data are mean ± SD, statistical analysis was performed via two-sided t-test, *p < 0.05; **p < 0.01, ****p < 0.0001. (FIG. 1I) Upregulation of MHC-I by UA. (FIG. 1J) Experimental setup of oral UA administration in mice with established APTK-s.c. tumors. Treatment diet was initiated eleven days after tumor injection and maintained until the end of the experiment. (FIG. 1K) Growth curve of mice subcutaneously transplanted with APTK tumors, receiving either UA-containing or control food (n=7 per group). Data are mean ± SD, ***p <0.001 by two-sided t-test. One out of two independent experiments are shown. (FIG. 1L) End point tumor weight, (FIG. 1M) CD8+ T cell infiltration in APTK-s.c. tumors assessed by flow cytometry, normalising total number of CD8^+ T cells to tumor weight (n=7 per group). Data are mean ± SD, statistical analysis was performed via Mann-Whitney test, *p < 0.05 and ***p <0.001. (FIG. 1N) Size of subcutaneous APTK tumors in Rag1^-/- mice receiving UA-containing or control food (n=7 per group). Treatment was initiated as depicted in FIG. 1J. Data are mean +-SD, depicting one out of two independent experiments. […]"}, "[1]": {"tested_on": "FoxP3+ T-regulatory cells", "conditions": "cited from earlier work"}, "muscle function": {"tested_on": "muscle function", "conditions": "urolithin A-high diet, cited from earlier work"}}}
{"smiles": "O=c1oc2cc(O)ccc2c2ccc(O)cc12", "note": "[Urolithin A]", "values": [{"measurement": "tumor growth", "setting": "APTK-s.c. tumors; CD8+ T cell depleting antibodies, UA-containing or control food", "value": "exacerbated tumor growth in both control and UA-fed cohorts"}, {"measurement": "tumor growth", "setting": "APTK-s.c. tumors; UA-containing food plus a-PD1", "value": "sensitized APTK tumors to PD-1 blockade"}, {"measurement": "CD8+ T cell infiltration", "setting": "APTK-s.c. tumors; high-dose UA diet (2.28 g/kg)", "value": "enhanced CD8^+ T cell infiltration"}, {"measurement": "tumor growth", "setting": "APTK-s.c. tumors; high-dose UA diet (2.28 g/kg), started eleven days after tumor injection", "value": "significantly reduced tumor growth"}, {"measurement": "FoxP3+ T-regulatory cells", "setting": "[1]", "value": "expanding FoxP3+ T-regulatory cells"}, {"measurement": "recovery of muscle function", "setting": "muscle function; mice with Duchenne muscular dystrophy", "value": "recovery of muscle function"}, {"measurement": "muscle function", "setting": "muscle function", "value": "superior muscle function"}]}
